Values of other authors in paper PMC12299890 (Pharmaceuticals, 2025).
Like-named read-outs stand apart in the source and are kept apart here.

Design: method as in PMID 27121673
Conditions: cited from earlier work

For O[C@H]1[C@H](O)[C@@H](O)[C@H](O)[C@@H](O)[C@@H]1O [SCI, scyllo-inositol], the “Time of maximum plasma concentration” value (after the last dose, 2000 mg two times a day for 10 days) is given as 2.9 h, the “AUC of SCI in CSF” value (day 1, oral 2000 mg two times a day) is given as 49.4 µg·h/mL and the “AUC of SCI in CSF” value (day 11, oral 2000 mg two times a day) is given as 153.0 µg·h/mL. The “Increase of brain concentration of SCI during the study” value (oral 2000 mg two times a day for 10 days) was 58–76%, the Side effects reported (oral 2000 mg two times a day) was “No side effects” and the “Time of peak SCI plasma concentration” value (plasma, after first oral dose of 2000 mg twice a day) was 3.8 h.
